# Data published in patent US20150328109A1, “DERMAL COMPOSITIONS CONTAINING UNNATURAL HYGROSCOPIC AMINO ACIDS” (MEDPHARM LIMITED, priority 2012, published 2015).
# Tested on: RHE tissues
# Test: RHE irritation assessment Method 1: SkinEthic Skin Irritation Test-42 bis assay (MTT), plus 24 h contact time
# Type: cell-based, human
# Details: 42 min and 24 h exposure; 5 and 1% w/v α-H-G, 10 and 1% w/v L-h-S in water
# Source text: The purpose of this experiment was to investigate the potential of alpha-hydroxyglycine (α-H-G) and L-homoserine (L-h-S) to cause skin irritation. The method was based on the validated SOP for the “The SkinEthic Skin Irritation Test-42 bis assay” in accordance to OECD guideline Test No. 439: In Vitro Skin Irritation. The protocol is provided in Section 1.2. Further details on the method can be found in the SkinEthic™ RHE SOP, Version 2.1 (July 2009), SkinEthic skin irritation test-42 bis test method for the prediction of acute skin irritation of chemicals: 42 minutes application+42 hours post-incubation. Available at: [http://ecvam.jrc.ec.europa.eu].
# In addition, a further experiment was performed where the contact time of the test solution with the tissue was increased to 24 h. Following which point an MTT assay was used to determine the tissue viability and the test solutions potential to cause irritation.
# The following steps were completed on receipt of the tissues: • (i) Wells of 6-well plates were filled with 1 mL growth culture medium. • (ii) Tissue were removed from their packaging, cleaned to remove the transport agarose and inspected for signs of damage; damaged tissues were discarded. • (iii) The tissue were transferred into the growth culture medium then incubated at 37° C., 5% CO2 until application of the test solution.
# 1.2.1.1.6 Applications of 5 and 1% w/v α-H-G and 10 and 1% w/v L-h-S and Controls • (i) 16 μL±0.5 μL of the test solutions (5% w/v α-hydroxyglycine (α-H-G) in water, 1% w/v α-hydroxyglycine (α-H-G) in water, 10% w/v L-homoserine (L-h-S) in water, 1% w/v L-homoserine (L-h-S) in water) and negative (PBS) and positive (5% SDS) controls were dispensed onto the top of the epidermal tissue, using positive displacement pipette. […]
smiles,measurement,value
N[C@@H](CCO)C(=O)O [L-homoserine],skin irritation potential (viability below 50% of negative control = irritant),non-irritants
